Laboratory results from a melting point compilation (Tetko et al.; mined from patent text by program, amines drawn as free bases though some values may be those of a salt).

Row | SMILES | melting point [°C]
1 | CCCCNc1ncc(C(=O)c2ccc(N)c([N+](=O)[O-])c2)s1 | 198 to 203
2 | N=C1SCCN1c1ccc(N)cc1[N+](=O)[O-] | 138 to 139
3 | O=C(NC[C@@H](C(=O)NO)N1CCCCC1)c1ccc(OCc2cc(Cl)nc(Cl)c2)cc1 | 145
4 | COC(=O)COc1cc2c(c3c1c(C(=O)C(N)=O)c(C)n3Cc1cccc(F)c1)CCC2 | 142 to 144
5 | COCc1nnc(N2N=C(c3ccc([N+](=O)[O-])c(Cl)c3)c3cc4c(cc3C[C@H]2C)OCO4)s1 | 208 to 210
6 | CC12C=CC(=O)C=C1CCC1C2CCC2(C)C(=O)COC12 (centres undefined) | 181 to 185
7 | COC(=O)c1ccccc1NC(=O)CN1CCNCC1 | 94 to 96
8 | CCn1c(C)nc2cc(C(F)(F)F)c(Cl)c([N+](=O)[O-])c21 | 114 to 116
9 | CON=C1C(C)(C)c2cc3c(cc2C1(C)C)N(SCc1nccc(OC)c1C)CN3 | 100
10 | CCCCn1c(=O)c([N+](=O)[O-])c(NC)c2ccccc21 | 225 to 227
11 | CCSSCS(C)(=O)=O | 34.6 to 36.3
12 | Cc1nc2n(c(=O)c1CCN1CCC(C(O)c3ccc(F)cc3)CC1)CCS2 (centres undefined) | 204
13 | CCCCCN(CCC12CC3CC(CC(C3)C1)C2)C(=O)NCCc1ccncc1 | 107 to 118
14 | CC1(C)C(C(=O)O)N2C(=O)C(NC(=O)COc3ccccc3)C2S1=O (centres undefined) | 160 to 161
15 | COc1cc(OC)cc(N2CCN(C(=O)Nc3cc(C(C)(C)O)c(C)nc3OC)CC2)c1 | 146 to 148
16 | Cn1nc2cccc(OCC3CC3)c2c1S(N)(=O)=O | 139 to 141
17 | CSC1(N)N=C(N(C)C)N=C(N)N1 (centres undefined) | 207 to 212
18 | CN(CCCCNC(=O)c1ccc2ccccc2c1)C1CCc2ncsc2C1 (centres undefined) | 122
19 | N#Cc1cccc(N2C(=O)CC(=O)Nc3c2ccc2c3CCC2)c1 | 250 to 251
20 | C=C1C[C@]2(C)C(=O)CC[C@H]2[C@@H]2CCC3=CC(=O)CC[C@]3(C)[C@@H]12 | 157 to 160
21 | COc1cc(-n2nc(C(F)(F)F)cc2C(F)(F)F)ccc1NC(=O)c1snnc1C | 119 to 121
22 | Clc1ccc2c(c1)NCc1ccccc1O2 | 94 to 95
23 | NCCNC(=S)Nc1c(Br)cccc1Br | 155 to 157

Now from value to compound:

Row | melting point [°C] | SMILES
24 | 216 to 217 | COc1ccc2nc(-c3ccc([N+](=O)[O-])cc3)sc2c1
25 | 155 to 158 | COc1cc(OC)c(N2CCCC2)cc1/C=C/C(=O)c1ccc(S(=O)(=O)NCC(=O)O)cc1
26 | 145 to 146 | Cc1oc2ccccc2c1C(=O)N(Cc1ccccc1)Cc1ccc2c(Br)c(OCC#N)ccc2c1
27 | 172 to 174 | CN(c1ccc(Cl)cc1)S(=O)(=O)c1cc(C(=O)Nc2ccc(S(C)=O)cc2)ccn1 (centres undefined)
28 | 202 to 203 | CC(=O)Nc1nc(CCc2ccc(CCl)cc2)c(Cc2ccc(S(C)(=O)=O)cc2)s1
29 | 207 to 208 | Nc1ccc(-c2cc(=O)c(C(=O)O)cn2-c2cccnc2)cc1
30 | 230 to 231 | CC(=O)Oc1ccc(-c2c(CBr)c3ccc(F)cc3oc2=O)c(OC(C)=O)c1
31 | 231 to 233 | Nc1ncccc1-c1nc2ccc(-c3ccncc3)nc2n1-c1ccc(CNC(=O)c2ccccc2)cc1
32 | 121 to 122 | Cc1cc(OC(F)(F)C(F)F)ccc1N1C(=O)c2cccc(Cl)c2C1=O
33 | 130 to 131 | COc1ccc(Cn2ccc3c(-c4ccco4)ncnc32)cc1
34 | 220 | COc1ccc(-c2ccc3ccc(N)nc3n2)cc1
35 | 98 to 99 | CCNc1cccc(-c2ccnc3c(C(=O)c4ccccc4)cnn23)c1
36 | 111 | CC(=O)Oc1ccc(-c2cnc(C)nc2Cl)cc1OC(C)=O
37 | 91 to 96 | CC(C)C[C@H](NC(=O)CCCc1ccccc1)C(=O)N[C@@H](C(C)C)[C@@H](O)c1c(-c2ccccc2)c1=O
38 | 59 to 60 | O=C1C(=O)c2ccccc2C2=C1SCC1(CCCN(CC(O)Cc3ccccc3)C1)O2 (centres undefined)
39 | 258 to 259 | O=C1C(O)=C(c2ccc(Cl)cc2)C(=O)C(O)=C1/C=C/c1ccccc1
